Assay [1] deals with primary cortical neurons isolated from APP/PS1 and wild type mice. The assay can be described thus: GFP fluorescence in live AAV-GFP infected primary cortical neurons treated with Nec1S or vehicle. As to conditions: DIV 15; 10 μM at DIV 7 and 11; APP/PS1-veh vs the other three groups incl. APP/PS1-Nec1S. The class given is cell-based, mouse. Here is the method: At DIV 1, we infected primary cortical neurons isolated from APP/PS1 and wild type mice with an adeno-associated virus (AAV) expressing the green fluorescent protein (GFP) under the neuronal promotor CamKII. At DIV 7 and 11, neurons from the two genotypes were treated with 10 μM Nec1S or vehicle. We then measured GFP fluorescence in live cells as an indication of live neurons.
(§1) Primary neuronal cultures—For the GFP experiments: Primary neurons were isolated from APP/PS1 and NonTg Po pups. The tissue was then dissociated in Neurobasal media (Thermo Fisher Scientific) and spun down for 3 minutes at 5,000 g at 4° C. The supernatant was discarded and the pellet was re-suspended in 1 ml of Neurobasal media supplemented with B27 (Thermo Fisher Scientific). An equal volume per each sample was seeded into a Poly-D-Lysine-coated (10 mg/mL, Sigma-Aldrich) black 96-well tissue culture plate. […] Neurons were treated for a total of 15 days and the GFP fluorescence was measured every 4 days. […] All fluorescent measurements (excitation 488 nm, emission 509 nm) were performed using the Synergy HT multi-mode microplate reader with the Gen5 software (BioTek, Winooski, Vt.). The reader was pre-heated to 37° C. to maintain optimal conditions for the neurons during the measurements. […]

Assay [2] concerns primary cortical neurons from wild type littermate mice. As to the kind of experiment: NeuN count of wild type primary cortical neurons treated with Nec-1S or vehicle. As to conditions: 10 μM at DIV 7 and DIV 11. The class given is cell-based, mouse. As to the method:
To probe for a direct link between necroptosis and neuronal loss in AD, we plated primary cortical neurons from APP/PS1 and wild type littermate mice. After seven days in vitro (DIV), neurons were treated with 10 μM of the necroptosis inhibitor 7-Cl-O-necrostatin (Nec15) or vehicle. Treatment was repeated at DIV 11. We then fixed neurons at DIV 11 and 15, and stained them for NeuN to count total number of neurons. […] To determine changes in necroptosis, we isolated proteins from neurons of the same four groups and measured the levels of total and phosphorylated MLKL by western blot.
as §1, with “Scientific).” for “Scientific). An equal volume per each sample was seeded into a Poly-D-Lysine-coated (10 mg/mL, Sigma-Aldrich) black 96-well tissue culture plate.”

The subject of a further assay is 5xFAD mice. As to the kind of experiment: Fluoro-Jade staining of brain sections of 5xFAD mice treated with Nec-1S in vivo. Set-up: species or system mouse. As to conditions: 8-month-old 5xFAD mice; 10 mg/kg i.p. once, then 0.5 mg/ml in drinking water for 21 days; vs vehicle. Here is the method:
Specifically, mice receive a single intraperitoneal injection of 10 mg/kg Nec1s after which they were given Nec1S in their drinking water at a concentration of 0.5 mg/ml for 21 days.
Immunohistochemistry: Coronal sections from hippocampus and temporal gyms of control (CTL) and Alzheimer's disease (AD) cases were pre-mounted on coated slides and washed in TBS. After blocking in TBSB (TBS, 2% BSA, and 0.1% Triton X), tissue was incubated overnight at 4° C. with the following primary antibodies: RIPK1 (1:200, BD Transduction Laboratories, catalog number 610459), MLKL (1:200, Novus Biologicals, catalog number NBP1-56729), RIPK3 (1:200, RD Systems catalog number MAB7604), pMLKL Ser358/Thr357 (1:200, Abcam, catalog number ab187091), pMLKL (1:200, SAB Signalway Antibody, catalog number 12837), NeuN (1:200, Cell Signaling, catalog number 024307P), Ibal (1:200, Wako, catalog number 09-19741), GFAP (1:200, Cell Signaling, catalog number 3670S), Caspase 3 (1:200, Millipore, catalog number AB3623), phospho-tau pSer202/Thr205 (ATB, 1:200, Thermo Fisher Scientific, catalog number MN1020), and pan-Cadherin (1:200, Abcam, catalog number ab6528 and ab6529). CP13 was a kind gift from Dr. Peter Davies. […]

With `CN1C(=O)NC(Cc2c[nH]c3c(Cl)cccc23)C1=O` (stereo not drawn) [Nec1S, 5-((7-chloro-1 H-indol-3-yl)methyl)-3-methylimidazolidine-2,4-dione], in assay [1], the “GFP fluorescence in live cells (indication of live neurons)” value is given as “APP/PS1-veh group had lower GFP levels compared to the other three groups”. In addition, the “decrease in the number of wild type neurons” value in assay [2] is “did not significantly affect the decrease in the number of wild type neurons”. Besides, the Fluoro-Jade-positive neurons entry in the assay with 5xFAD mice is reported as “fewer Fluoro-Jade-positive neurons compared to vehicle-treated 5xFAD mice”.

The values are drawn from patent publication US20180094248A1, “Necroptosis Signaling as a Therapeutic Target for Alzheimer's Disease” (Arizona Board of Regents on behalf of Arizona State …, priority 2016, published 2018).
